Assay results as given in patent US5910482A (priority 1996, dated 1999).

Tests used:
pregnant rats [1] = assay: Delivery day and pup survival after L-NAME infusion to pregnant rats; effect of CGRP on fetal survival; format: in vivo; settings: L-NAME 50/mg/day infusion to pregnant rats; 5 animals
pregnant rats [2] = assay: Effects of L-NAME infusion on systolic blood pressure in pregnant rats; format: in vivo, rat; settings: n = 5
Description: The effects of hypertensive agent L-NAME (50 mg/rat) on blood pressure were studied. […] L-NAME was infused as described in the FIG. 2.

COC(=O)[C@@H](N)CCCNC(=N)N[N+](=O)[O-] [L-NAME, N^G -nitro-L-arginine methyl ester]
# of dead pups (pregnant rats [1]): 10
Weight of pups (pregnant rats [1]): 5.14 ± 0.07 g
Systolic Blood Pressure (pregnant rats [2]; Gestational Day 17 (before infusion start on day 18), L-NAME 50 mg/day): 116 ± 3 mm Hg
Systolic Blood Pressure (pregnant rats [2]; Gestational Day 18, L-NAME 50 mg/day infused from day 18): 137 ± 6 mm Hg
Systolic Blood Pressure (pregnant rats [2]; Gestational Day 19, L-NAME 50 mg/day infused from day 18): 154 ± 3 mm Hg
Systolic Blood Pressure (pregnant rats [2]; Gestational Day 22, L-NAME 50 mg/day infused from day 18): 137 ± 8 mm Hg
Systolic Blood Pressure (pregnant rats [2]; Postpartum PP Day 1, L-NAME 50 mg/day): 145 ± 5 mm Hg
Systolic Blood Pressure (pregnant rats [2]; Postpartum PP Day 2, L-NAME 50 mg/day): 140 ± 5 mm Hg
